Experimental data from patent US9717746B2 (priority 2014, dated 2017).

Assays:
[1] = tested on: hippocampal slices
[2] = tested on: hippocampal slices; remark: listed apart in the source

SMILES: CCCCCCCCCCCCCCCCCCOCC(COP(=O)([O-])OCC[N+](C)(C)C)OC (racemic) [edelfosine, 1-O-octadecyl-2-O-methyl-rac-glycero-3-phosphocholine]
- effect of antidote per se on PS (without neurotoxicant) [1]: innocuous

SMILES: CC[C@@H]1C(=O)OC[C@@H]1Cc1cncn1C [pilocarpine]
- neurotoxicity of the neurotoxicant (PS area) [2]: neurotoxicity of pilocarpine increases at high potassium concentration
